Reference: patent US11358977B2, “Deuterated pyridone amides and prodrugs thereof as modulators of sodium channels” (VERTEX PHARMACEUTICALS INCORPORATED, priority 2017, dated 2022)
Each block holds one compound with its values, some of them ahead of it.

Columns and labels:
[1] = In vitro hepatocyte assay: prodrug conversion to parent compound; assay type: in vitro ADME, human; conditions: for half-life at 0.25 µM: cryopreserved human hepatocytes in suspension, cryopreserved human hepatocytes 0.625 million cells/mL, 37° C., Compounds 20 and 13 co-incubated, read-out: t1/2 in human hepatocytes; for conversion of prodrug to parent compound / % remaining: human hepatocytes; for conversion of prodrug to parent compound: LC-MS/MS, Compound 20 to Compound 10, Compound 13 to Compound 7
Procedure: Materials. Cryopreserved human hepatocytes and Cryopreserved Hepatocytes Recovery Medium (CHRM™) were purchased from Life Technologies (Carlsbad, Calif.). Gibco™ Leibovitz's L-15 Medium was purchased from Fisher Scientific (Waltham, Mass.).
Methods. 10 mM stock solutions containing Compound 20 and Compound 13 were prepared in DMSO. Equal volumes of the two 10 mM stock solutions were mixed to form a combination stock solution containing Compound 20 and Compound 13 in concentrations of 5 mM each. The 5 mM combination stock solution was diluted to a concentration of 50 μM of each compound in DMSO (“50 μM combination stock”). Cryopreserved human hepatocytes were thawed in CHRM™ medium and prepared as a suspension in incubation medium (L-15 Medium with supplements containing glucose, HEPES buffer and NaHCO3), with the final cell concentration of 0.625 million cells/mL. In a 48 well plate, 1 μL of the 50 μM combination stock and then 199 μL of hepatocyte suspension (0.625 million cells/mL) were added to each well. The plate was covered and incubated at 37° C. in an incubator with gentle shaking (50 rpm). The reactions were quenched at 0, 0.25, 0.5, 1 and 2 hours by adding 200 μL of ice-cold quench solution (ACN:MeOH:0.1% aqueous formic acid, 2:2:1) containing internal standard (n=3 per time point). […] LC-MS/MS analysis was conducted using a Phenomenex Luna C8 column (3 micron, 2 mm diameter×30 mm long, at room temperature) eluted with a gradient consisting of mobile phases of 0.1% formic acid in water and 0.1% formic acid in acetonitrile at a total flow rate of 0.6 mL/min and a total run time of 4.5 minutes. The analytes were detected by MS/MS with Electrospray Ionization (ESI) in the mode of multiple reaction monitoring (MRM). The injection volume was 10 μL.

human NaV 1.8 = target: T1, human NaV 1.8 (Homo sapiens, UniProt Q9Y5Y9); assay: E-VIPR assay for NaV inhibition; assay type: cell-based; conditions: HEK cells expressing human NaV 1.8, E-VIPR
T1 construct: expressed in transfected cells; host or cells: HEK cells, grown under blasticidin selection; KIR2.1 BacMam virus added before seeding
Source text: Sodium ion channels are voltage-dependent proteins that can be activated by inducing membrane voltage changes by applying electric fields. […] The instrument comprises a microtiter plate handler, an optical system for exciting the coumarin dye while simultaneously recording the coumarin and oxonol emissions, a waveform generator, a current- or voltage-controlled amplifier, and parallel electrode pairs that are inserted into assay plate wells. Under integrated computer control, this instrument passes user-programmed electrical stimulus protocols to cells within the wells of the microtiter plate.
The solution was made by adding 10% Pluronic F127 stock equal to combined volumes of CC2-DMPE and DiSBAC6(3).
Then 25 μL per well from compound plate was transferred to each cell plate.
A pre-stimulus recording was performed for 0.5 seconds to obtain the un-stimulated intensities baseline. The stimulatory waveform was followed by 0.5 seconds of post-stimulation recording to examine the relaxation to the resting state.

[2] = In vitro microsomal metabolic stability assay, rat; assay type: in vitro ADME; conditions: rat liver microsomes 0.25 mg/mL, 1.0 μM compound, NADPH
Procedure: (§1) Materials. Rat, Dog, Monkey and Human liver microsomes (20 mg/mL) were obtained from Xenotech, LLC (Lenexa, Kans.). P-nicotinamide adenine dinucleotide phosphate, reduced form (NADPH), magnesium chloride (MgCl2), and dimethyl sulfoxide (DMSO) were purchased from Sigma-Aldrich.
(§2) Methods. […] The 10 mM stock solutions were diluted to 100 μM in DMSO. In each cluster polypropylene tube, 190.7 μL of 100 mM phosphate buffer, pH 7.4 was added, then 2.5 μL of liver mocrosomes (20 mg/mL, rat, dog, monkey or human) was added, then a 2 μL aliquot of the 100 μM test compound was added, and the mixture was pre-warmed for 10 minutes. Reactions were initiated by addition of 4.8 μL of pre-warmed NADPH solution (100 mM in 100 mM phosphate buffer). The final reaction volume was 200 μL and contained 0.25 mg/mL rat, dog, monkey or human liver microsomes, 1.0 μM test compound, and 2.4 mM NADPH in 0.1 M potassium phosphate buffer, pH 7.4. The reaction mixtures were incubated at 37° C., and the reactions were quenched at 0, 15, 30 and 60 minutes by adding 200 μL of ice-cold quench solution (ACN:MeOH:0.1% formic acid in water 2:2:1) containing internal standard, n=3 per time point. The tubes were centrifuged and supernatants were analyzed for amounts of the test compound remaining by LC-MS/MS. The HPLC system included a Phenomenex Luna C8 column, 3 micron, 2 mm diameter×30 mm long eluted with a gradient mobile phase consisting of 0.1% formic acid in water or in acetonitrile. The analytes were detected by MS/MS with Electrospray Ionization (ESI) in the mode of multiple reaction monitoring (MRM). The injection volume was 10 μL.

[3] = In vitro microsomal metabolic stability assay, dog; assay type: in vitro ADME; conditions: dog liver microsomes 0.25 mg/mL, 1.0 μM compound, NADPH
Procedure: as §1, §2

[4] = In vitro microsomal metabolic stability assay, monkey; assay type: in vitro ADME; conditions: monkey liver microsomes 0.25 mg/mL, 1.0 μM compound, NADPH
Procedure: as §1, §2

[5] = In vitro microsomal metabolic stability assay, human; assay type: in vitro ADME; conditions: human liver microsomes 0.25 mg/mL, 1.0 μM compound, NADPH
Procedure: as §1, §2

[6] = In vivo pharmacokinetic study, rat IV; design: species or system Male Sprague Dawley rats; conditions: male, Sprague Dawley, plasma, rat IV bolus, cassette, nominal 0.5 mg/kg
Procedure: General Procedures. Concentrations of the test compounds in plasma were determined using a high performance liquid chromatography/tandem mass spectrometry (HPLC/MS/MS) method. The test compounds along with the internal standard (IS) were extracted from plasma (20 μL) by direct protein precipitation with acetonitrile (1:25 ratio of plasma/acetonitrile). After centrifugation, the supernatant extract (10 μL) was injected onto the LC/MS/MS system. The HPLC system included a Phenomenex Luna C8 column, 3 micron, 2 mm diameter×30 mm long eluted with a gradient mobile phase consisting of 0.1% formic acid in water or in acetonitrile. The analytes were detected by MS/MS with Electrospray Ionization (ESI) in the mode of multiple reaction monitoring (MRM). The lower limit of quantitation (LLOQ) was 1.00 ng/mL. The linear range of the assay was from 1 to 3000 ng/mL. The assay accuracy was within 20% of the nominal values.
Plasma concentration-time profiles of the test compounds were analyzed by noncompartmental pharmacokinetic methods using PK module in Watson, Version 7.4.2 (Thermo Scientific). Pharmacokinetic parameters including AUCa11, AUC0-∞, C0, Cl, Vss and t1/2 were determined.
Descriptive statistical data of plasma concentrations and pharmacokinetic parameter estimates were calculated, including the mean, standard deviation (SD), and coefficient of variation (% CV) using Microsoft Excel 2010.
Rat IV Study. Compounds 7 and 10 were administered simultaneously in a single intravenous bolus to Male Sprague Dawley rats (n=3) via jugular cannula. The nominal dose of each compound was 0.5 mg/kg. The cassette dosing solution was formulated in D5W with additives Animals had free access to food and water before and after dosing. Blood samples (approximately 0.25 mL each) were collected via a carotid artery catheter prior to dosing and at 0 (predose), 5 min, 10 min, 0.25, 0.5, 1, 2, 4, 8, 12, 24 hours post dose. Each blood sample was collected into a tube that was kept on wet ice and contained potassium EDTA as the anticoagulant. Plasma was separated and stored at approximately −70° C. until analysis.
Plasma samples and dosing solutions were analyzed using a liquid chromatography/tandem mass spectrometry (LC/MS/MS) method to determine the concentrations of Compounds 7 and 10 with a lower limit of quantitation (LLOQ) of 1.00 ng/mL. The average plasma concentrations of Compounds 7 and 10 are plotted in FIG. 5 and are also presented in tabular form in Table 5.
Plasma concentration vs. time data were subjected to noncompartmental pharmacokinetic (PK) analysis. To determined the measured dose of each compound, the dose formulation (50 μL) was aliquoted into a cluster tube at the time of dosing. Then 450 μL of DMSO was added to the tube to dilute it 10×. Then the diluted dosing solution was spiked into rat blank plasma with 100× dilution. The resulting plasma sample was analyzed along with the plasma samples collected from rats that were dosed with the compounds, using the same LC/MS/MS method.

T1 sequence (Q9Y5Y9 whole entry): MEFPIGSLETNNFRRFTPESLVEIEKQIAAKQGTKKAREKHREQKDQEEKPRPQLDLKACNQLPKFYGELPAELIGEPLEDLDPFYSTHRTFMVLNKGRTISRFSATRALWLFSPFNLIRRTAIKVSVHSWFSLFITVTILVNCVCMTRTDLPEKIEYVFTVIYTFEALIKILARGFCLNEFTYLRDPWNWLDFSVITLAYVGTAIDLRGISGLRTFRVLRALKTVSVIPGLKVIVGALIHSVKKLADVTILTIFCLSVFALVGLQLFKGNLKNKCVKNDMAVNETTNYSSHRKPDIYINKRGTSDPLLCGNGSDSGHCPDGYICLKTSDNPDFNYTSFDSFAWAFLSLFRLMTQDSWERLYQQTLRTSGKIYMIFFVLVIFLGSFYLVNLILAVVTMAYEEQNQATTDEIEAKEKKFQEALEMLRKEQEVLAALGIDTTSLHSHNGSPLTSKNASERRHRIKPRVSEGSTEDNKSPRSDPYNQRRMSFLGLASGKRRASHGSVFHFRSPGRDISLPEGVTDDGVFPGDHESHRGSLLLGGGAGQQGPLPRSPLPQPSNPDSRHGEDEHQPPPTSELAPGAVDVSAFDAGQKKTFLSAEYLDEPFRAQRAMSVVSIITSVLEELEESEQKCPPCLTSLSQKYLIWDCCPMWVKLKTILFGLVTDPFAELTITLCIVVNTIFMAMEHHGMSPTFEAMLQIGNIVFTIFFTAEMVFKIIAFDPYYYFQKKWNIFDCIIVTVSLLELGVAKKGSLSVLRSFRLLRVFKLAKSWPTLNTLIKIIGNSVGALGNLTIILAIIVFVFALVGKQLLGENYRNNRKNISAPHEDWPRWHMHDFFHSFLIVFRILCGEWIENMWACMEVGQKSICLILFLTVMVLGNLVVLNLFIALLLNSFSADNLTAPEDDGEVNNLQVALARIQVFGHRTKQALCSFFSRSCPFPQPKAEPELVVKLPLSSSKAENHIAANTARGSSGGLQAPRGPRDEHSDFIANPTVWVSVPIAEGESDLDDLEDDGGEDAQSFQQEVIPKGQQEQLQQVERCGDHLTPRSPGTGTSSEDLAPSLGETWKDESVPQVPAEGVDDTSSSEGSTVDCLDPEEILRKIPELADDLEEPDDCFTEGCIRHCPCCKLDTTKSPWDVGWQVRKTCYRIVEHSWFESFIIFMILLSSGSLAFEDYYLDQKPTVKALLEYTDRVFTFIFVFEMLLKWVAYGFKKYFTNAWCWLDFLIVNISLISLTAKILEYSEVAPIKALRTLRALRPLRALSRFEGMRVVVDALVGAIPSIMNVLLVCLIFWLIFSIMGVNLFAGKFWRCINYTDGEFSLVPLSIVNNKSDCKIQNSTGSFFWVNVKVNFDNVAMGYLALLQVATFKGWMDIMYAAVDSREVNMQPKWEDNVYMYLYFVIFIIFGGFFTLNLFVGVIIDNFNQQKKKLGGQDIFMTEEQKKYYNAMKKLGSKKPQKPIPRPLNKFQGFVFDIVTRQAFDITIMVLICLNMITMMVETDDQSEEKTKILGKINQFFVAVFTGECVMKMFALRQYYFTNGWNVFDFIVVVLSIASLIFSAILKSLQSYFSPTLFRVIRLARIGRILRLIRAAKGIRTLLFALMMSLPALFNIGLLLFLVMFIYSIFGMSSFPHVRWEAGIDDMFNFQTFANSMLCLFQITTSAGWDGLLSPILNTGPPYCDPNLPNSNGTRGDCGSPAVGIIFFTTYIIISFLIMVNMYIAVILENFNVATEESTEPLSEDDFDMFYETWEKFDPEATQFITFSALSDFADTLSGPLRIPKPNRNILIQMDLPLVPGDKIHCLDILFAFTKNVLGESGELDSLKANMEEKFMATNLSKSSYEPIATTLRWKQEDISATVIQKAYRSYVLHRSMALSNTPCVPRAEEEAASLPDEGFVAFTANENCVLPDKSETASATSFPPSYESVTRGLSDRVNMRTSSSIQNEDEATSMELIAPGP

half-life at 0.25 µM [1]: < 0.5 h
conversion of prodrug to parent compound [1]: fast conversion
% remaining ([1]; time 0 hr): 100%
% remaining ([1]; time 0.25 hr): 73.8%
% remaining ([1]; time 0.5 hr): 33.2%
% remaining ([1]; time 1 hr): 11.1%
% remaining ([1]; time 2 hr): 11.8%
IC50 (human NaV 1.8; 11 point dose response, top dose 3 μM, read-out: Nav1.8 IC50): 1200 nM
Nav1.8 Max % Activity (human NaV 1.8; normalised to positive control 25 μM): 99%
SMILES: [2H]C([2H])([2H])c1cc(F)ccc1Oc1cc(C(F)(F)F)ccc1C(=O)Nc1ccn(COP(=O)(O)O)c(=O)c1 [Compound 13, (4-(2-(4-fluoro-2-(methyl-d3)phenoxy)-4-(trifluoromethyl)benzamido)-2-oxopyridin-1(2H)-yl)methyl dihydrogen phosphate]

% remaining ([2]; 0 min): 100%
% remaining ([2]; 15 min): 108%
% remaining ([2]; 30 min): 102%
% remaining ([2]; 60 min): 87.4%
% remaining ([3]; 0 min): 100%
% remaining ([3]; 15 min): 85.9%
% remaining ([3]; 30 min): 85.4%
% remaining ([3]; 60 min): 85.7%
% remaining ([4]; 0 min): 100%
% remaining ([4]; 15 min): 96.4%
% remaining ([4]; 30 min): 92.4%
% remaining ([4]; 60 min): 91.4%
% remaining ([5]; 0 min): 100%
% remaining ([5]; 15 min): 110%
% remaining ([5]; 30 min): 105%
% remaining ([5]; 60 min): 106%
concentration at 0.083 h ([6]; 0.083 hours): 391 ng/mL
concentration at 0.167 h ([6]; 0.167 hours): 349 ng/mL
concentration at 0.25 h ([6]; 0.25 hours): 316 ng/mL
concentration at 0.5 h ([6]; 0.5 hours): 239 ng/mL
concentration at 1 h ([6]; 1 hour): 174 ng/mL
concentration at 2 h ([6]; 2 hours): 111 ng/mL
concentration at 4 h ([6]; 4 hours): 51.6 ng/mL
concentration at 8 h ([6]; 8 hours): 14.3 ng/mL
concentration at 12 h ([6]; 12 hours): 4.27 ng/mL
AUC ([6]; noncompartmental analysis): 415 ng·h/mL
AUC(0-inf) ([6]; noncompartmental analysis): 422 ng·h/mL
C0 ([6]; noncompartmental analysis): 245 ng/mL
clearance ([6]; noncompartmental analysis): 22.1 mL/min/kg
half-life ([6]; noncompartmental analysis): 2.2 h
Vd ([6]; noncompartmental analysis, read-out: Vss): 3.4 L/kg
SMILES: Cc1cc(F)ccc1Oc1cc(C(F)(F)F)ccc1C(=O)Nc1cc[nH]c(=O)c1 [Compound 10, 2-(4-fluoro-2-methylphenoxy)-N-(2-oxo-1,2-dihydropyridin-4-yl)-4-(trifluoromethyl)benzamide, reference compound]

half-life at 0.25 µM [1]: < 0.5 h
conversion of prodrug to parent compound [1]: fast conversion
% remaining ([1]; time 0 hr): 100%
% remaining ([1]; time 0.25 hr): 75.1%
% remaining ([1]; time 0.5 hr): 32.7%
% remaining ([1]; time 1 hr): 11.2%
% remaining ([1]; time 2 hr): 11.6%
SMILES: Cc1cc(F)ccc1Oc1cc(C(F)(F)F)ccc1C(=O)Nc1ccn(COP(=O)(O)O)c(=O)c1 [Compound 20, (4-(2-(4-fluoro-2-methylphenoxy)-4-(trifluoromethyl)benzamido)-2-oxopyridin-1(2H)-yl)methyl dihydrogen phosphate, reference compound]
